Test results reported in PubChem BioAssay AID1259408 (Genetic Toxicology Data Bank (GENE-TOX), 2018).
Activity calls are given as the source filed them. How the calls were made is not given here.

System: GENE-TOX genotoxicity assays, various organisms and cells
Assay: GENE-TOX mutagenicity studies
Conditions: for call: Assay Type: In vivo carcinogenicity studies
[1] = Species/Cell Type: Salmonella typhimurium (one or more of the five standard strains: TA98, TA100, TA1535, TA1537, and TA1538), Assay Type: Histidine reverse gene mutation, Ames assay, Assay Code: SALT, Evaluation Type: Evaluation A (Pre-1980)
[2] = Species/Cell Type: Chinese hamster lung (V79) cells, Assay Type: Forward gene mutation at the HPRT or ouabain locus, Assay Code: V79+, Evaluation Type: Evaluation A (Pre-1980)
[3] = Species/Cell Type: Syrian hamster embryo (SHE) cells, Assay Type: Cell transformation, clonal assay, Assay Code: CTCT, Evaluation Type: Evaluation A (Pre-1980)
[4] = Species/Cell Type: Nonhuman, Assay Code: CCG+, Evaluation Type: Evaluation A (Pre-1980)
[5] = Species/Cell Type: Saccharomyces cerevisiae, Assay Type: Mitotic recombination or gene conversion, Assay Code: YEC+, Evaluation Type: Evaluation A (Pre-1980)
[6] = Species/Cell Type: Saccharomyces cerevisiae, Assay Type: Mitotic recombination or gene conversion, Assay Code: YEH+, Evaluation Type: Evaluation A (Pre-1980)
[7] = Species/Cell Type: Salmonella typhimurium (one or more of the five standard strains: TA98, TA100, TA1535, TA1537, and TA1538), Assay Type: Histidine reverse gene mutation, Ames assay, Assay Code: SAL+, Evaluation Type: Evaluation A (Pre-1980)
[8] = Species/Cell Type: Salmonella typhimurium, Assay Type: Forward and reverse gene mutation, host-mediated assay, Assay Code: HMA+, Evaluation Type: Evaluation A (Pre-1980)
[9] = Species/Cell Type: Syrian hamster embryo (SA7/SHE) cells, Assay Type: Cell transformation, viral enhanced, Assay Code: CT7+, Evaluation Type: Evaluation A (Pre-1980)
[10] = Species/Cell Type: Salmonella typhimurium (one or more of the five standard strains: TA98, TA100, TA1535, TA1537, and TA1538), Assay Type: Histidine reverse gene mutation, Ames assay, Assay Code: SAL+*, Activation: With metabolic activation, Evaluation Type: Evaluation A (Pre-1980)

In the case of CN(CCO)c1nc(Nc2ccccc2)nc(Nc2ccc(/C=C/c3ccc(Nc4nc(Nc5ccccc5)nc(N(C)CCO)n4)cc3S(=O)(=O)O)c(S(=O)(=O)O)c2)n1, the mutagenic call (Species/Cell Type: Rodents, Sex: Male, Assay Type: Dominant lethal test, Assay Code: DLT-, Evaluation Type: Evaluation A (Pre-1980)) is reported as “inactive; negative” and the mutagenic call [1] is reported as “no conclusion”.

For C/C=C/C1=CN2C(=O)c3cc(O[C@@H]4O[C@@H](C)[C@H](NC)[C@@](C)(O)[C@H]4O)c(C)c(O)c3N[C@H](O)[C@@H]2C1, the mutagenic call (Species/Cell Type: Mammalian polychromatic erythrocytes, Assay Type: Micronucleus test, chromosome aberrations, Assay Code: MNT+U, Dose Response: Unconfirmed positive response, Evaluation Type: Evaluation B (Post-1980)) was “active; positive”.

In the case of C[C@H](CC[C@H](C)OS(C)(=O)=O)OS(C)(=O)=O, the mutagenic call (Species/Cell Type: Rodents, Sex: Male, Assay Type: Dominant lethal test, Assay Code: DLT+, Evaluation Type: Evaluation A (Pre-1980)) is reported as “active; positive”.

For CN(CC(=O)OC[C@H](N)C(=O)O)N=O, the mutagenic call (Species/Cell Type: Escherichia coli polA (W3110 vs P3478), Assay Type: Rec-assay, DNA effects (bacterial DNA repair), Assay Code: RE2+, Evaluation Type: Evaluation A (Pre-1980)) was “active; positive” and the mutagenic call (Species/Cell Type: Escherichia coli polA (W3119 vs P3478), Assay Type: Rec-assay, DNA effects (bacterial DNA repair), Assay Code: RE1T, Evaluation Type: Evaluation A (Pre-1980)) was “no conclusion”.

With NC(N)=NS(=O)(=O)c1ccc(N)cc1 the mutagenic call (Species/Cell Type: Salmonella typhimurium (one or more of the five standard strains: TA98, TA100, TA1535, TA1537, and TA1538), Assay Type: Histidine reverse gene mutation, Ames assay, Assay Code: SAL-, Evaluation Type: Evaluation A (Pre-1980)) was “inactive; negative”.

O[C@@H]1C=Cc2c(cc3ccc4cccc5ccc2c3c45)[C@H]1O was tested, and the mutagenic call [2] was “active; positive” and the call (Species/Cell Type: Nonhuman, Assay Code: CCG+L, Evaluation Type: Evaluation A (Pre-1980)) was “active; positive”.

O[C@@H]1C=Cc2cc3ccc4cccc5ccc(c2[C@H]1O)c3c45 was tested, and the mutagenic call (Species/Cell Type: Chinese hamster lung (V79) cells, Assay Type: Forward gene mutation at the HPRT or ouabain locus, Assay Code: V79-*, Activation: With metabolic activation, Evaluation Type: Evaluation A (Pre-1980)) was “inactive; negative”, the call (Species/Cell Type: Nonhuman, Assay Code: CCGT, Evaluation Type: Evaluation A (Pre-1980)) was “no conclusion” and the mutagenic call (Species/Cell Type: Nonhuman, Assay Type: Sister-chromatid exchange (SCE) in vitro, Assay Code: SC2+, Evaluation Type: Evaluation A (Pre-1980)) was “active; positive”. The mutagenic call [1] was “no conclusion” and the mutagenic call [3] was “no conclusion”.

For O=S1(=O)CCCO1, the mutagenic call (Species/Cell Type: Escherichia coli polA (W3119 vs P3478), Assay Type: Rec-assay, DNA effects (bacterial DNA repair), Assay Code: RE1+, Evaluation Type: Evaluation A (Pre-1980)) was “active; positive”, the mutagenic call (Species/Cell Type: Fischer rat embryo (RLV/1706) cells, Assay Type: Cell transformation, viral enhanced, Assay Code: CTR+, Evaluation Type: Evaluation A (Pre-1980)) was “active; positive” and the mutagenic call (Species/Cell Type: Hordeum vulgare (barley), Assay Type: Chromosome aberrations, Assay Code: HOC+D, Dose Response: With dose response, Evaluation Type: Evaluation A (Pre-1980)) was “active; positive”. The mutagenic call (Species/Cell Type: Human diploid fibroblasts, Assay Type: Unscheduled DNA synthesis (UDS) in vitro, DNA effects, Assay Code: UDH+D, Dose Response: With dose response, Evaluation Type: Evaluation A (Pre-1980)) was “active; positive”, the call [4] was “active; positive” and the mutagenic call (Species/Cell Type: Nonhuman, Assay Type: Sister-chromatid exchange (SCE) in vitro, Assay Code: SC2+D, Dose Response: With dose response, Evaluation Type: Evaluation A (Pre-1980)) was “active; positive”. The mutagenic call [5] was “active; positive”, the mutagenic call [6] was “active; positive” and the mutagenic call [7] was “active; positive”. For the same compound, the mutagenic call [8] was “active; positive”, the mutagenic call (Species/Cell Type: Schizosaccharomyces pombe, Assay Type: Reverse gene mutation, Assay Code: YEZ+, Evaluation Type: Evaluation A (Pre-1980)) was “active; positive” and the mutagenic call [9] was “active; positive”. For the same compound, the mutagenic call [3] was “no conclusion” and the mutagenic call (Species/Cell Type: Vicia faba, Assay Type: Chromosome aberrations, Assay Code: VIC+, Evaluation Type: Evaluation A (Pre-1980)) was “active; positive”.

In the case of Cc1c2ccccc2c(C(=O)O)c2ccc3ccccc3c12, the mutagenic call (Species/Cell Type: Drosophila melanogaster, Assay Type: Sex-linked recessive lethal gene mutation, Assay Code: SRLT, Evaluation Type: Evaluation A (Pre-1980)) is reported as “no conclusion”.

With C1CCNC1 the mutagenic call (Species/Cell Type: Salmonella typhimurium, Assay Type: Forward and reverse gene mutation, host-mediated assay, Assay Code: HMA-, Evaluation Type: Evaluation A (Pre-1980)) was “inactive; negative”.

With O=[N+]([O-])c1ccc2[nH]ncc2c1 the mutagenic call [7] was “active; positive”.

For Clc1ccccc1Cl, the mutagenic call (Species/Cell Type: Mammalian polychromatic erythrocytes, Assay Type: Micronucleus test, chromosome aberrations, Assay Code: MNT+, Evaluation Type: Evaluation B (Post-1980)) was “active; positive”.

In the case of Cc1c2ccccc2cc2c(F)cc3ccccc3c12, the mutagenic call (Species/Cell Type: Mouse prostate cells, Assay Type: Cell transformation, Assay Code: CTM+, Evaluation Type: Evaluation A (Pre-1980)) is reported as “active; positive”.

With C[N+](C)(C)CCCl the call (Species/Cell Type: Nonhuman, Assay Code: CCG-, Evaluation Type: Evaluation A (Pre-1980)) was “inactive; negative” and the mutagenic call (Species/Cell Type: Vicia faba, Assay Type: Chromosome aberrations, Assay Code: VIC+D, Dose Response: With dose response, Evaluation Type: Evaluation A (Pre-1980)) was “active; positive”.

For CCCCNC(=O)N(CCCC)c1nc(-c2ccccc2)cs1, the mutagenic call [8] was “active; positive”.

In the case of Cc1cccc2ncccc12, the mutagenic call [10] is reported as “active; positive”.

With ClC(Cl)Cl the mutagenic call (Species/Cell Type: Chinese hamster lung (V79) cells, Assay Type: Forward gene mutation at the HPRT or ouabain locus, Assay Code: V79-, Evaluation Type: Evaluation A (Pre-1980)) was “inactive; negative”, the mutagenic call (Species/Cell Type: Human lymphocytes, Assay Type: Sister-chromatid exchange (SCE) in vitro, Assay Code: SCL+D, Dose Response: With dose response, Evaluation Type: Evaluation B (Post-1980)) was “active; positive” and the mutagenic call (Species/Cell Type: Human, Assay Type: Sister-chromatid exchange (SCE) in vitro, Assay Code: SC1+D, Dose Response: With dose response, Evaluation Type: Evaluation B (Post-1980)) was “active; positive”. The mutagenic call (Species/Cell Type: Mammalian polychromatic erythrocytes, Assay Type: Micronucleus test, chromosome aberrations, Assay Code: MNTT, Evaluation Type: Evaluation A (Pre-1980)) was “no conclusion”, the mutagenic call (Species/Cell Type: Mouse, Sex: Male, Assay Type: Sperm morphology, Assay Code: SPIT, Evaluation Type: Evaluation A (Pre-1980)) was “no conclusion” and the call [4] was “active; positive”. For the same compound, the mutagenic call (Species/Cell Type: Nonhuman, Assay Type: Sister-chromatid exchange (SCE) in vitro, Assay Code: SC2T, Evaluation Type: Evaluation B (Post-1980)) was “no conclusion”, the mutagenic call (Species/Cell Type: Nonhuman, Assay Type: Sister-chromatid exchange (SCE) in vivo, Assay Code: SC3+D, Dose Response: With dose response, Evaluation Type: Evaluation B (Post-1980)) was “active; positive” and the mutagenic call [5] was “active; positive”. The mutagenic call [6] was “active; positive”, the mutagenic call (Species/Cell Type: Saccharomyces cerevisiae, Assay Type: Reverse gene mutation, Assay Code: YER+, Evaluation Type: Evaluation A (Pre-1980)) was “active; positive” and the mutagenic call (Species/Cell Type: Syrian hamster embryo (SA7/SHE) cells, Assay Type: Cell transformation, viral enhanced, Assay Code: CT7-, Evaluation Type: Evaluation A (Pre-1980)) was “inactive; negative”.

In the case of CCCN(CCC)N=O, the mutagenic call [2] is reported as “active; positive”, the mutagenic call (Species/Cell Type: Human diploid fibroblasts, Assay Type: Unscheduled DNA synthesis (UDS) in vitro, DNA effects, Assay Code: UDHT, Evaluation Type: Evaluation A (Pre-1980)) is reported as “no conclusion” and the call [4] is reported as “active; positive”. The mutagenic call (Species/Cell Type: Nonhuman, Assay Type: Sister-chromatid exchange (SCE) in vivo, Assay Code: SC3+, Evaluation Type: Evaluation B (Post-1980)) was “active; positive”, the mutagenic call [10] was “active; positive” and the mutagenic call [9] was “active; positive”.

[O-][n+]1ccccc1 was tested, and the mutagenic call (Species/Cell Type: Bacillus subtilis (H17 vs M45), Assay Type: Rec-assay, spot test, DNA effects (bacterial DNA repair), Assay Code: REW+, Evaluation Type: Evaluation A (Pre-1980)) was “active; positive” and the mutagenic call (Species/Cell Type: Escherichia coli polA (W3119 vs P3478), Assay Type: Rec-assay, DNA effects (bacterial DNA repair), Assay Code: RE1-, Evaluation Type: Evaluation A (Pre-1980)) was “inactive; negative”.

In the case of Cc1ccccc1C, the mutagenic call (Species/Cell Type: Mammalian polychromatic erythrocytes, Assay Type: Micronucleus test, chromosome aberrations, Assay Code: MNTT, Evaluation Type: Evaluation B (Post-1980)) is reported as “no conclusion”.
